Our source for the Kd values is patent US9695217B2, “Peptide domains that bind small molecules” (Iowa State University Research Foundation, Inc., priority 2010, dated 2017).

The conditions of experiment [1]: known polyhistidine binding domain, background statement; read-out: molar dissociation constant for nickel; cited from earlier work.
Experiment [2] can be described thus: Binding strength measured by surface plasmon resonance (BIACOR 3000, Sensor Chip NTA). The following applies: read-out: Kd (dissociation constant for nickel), SPR. For orientation: In SPR one partner is held on a chip, and binding of the other changes the refractive index at the surface.

Where two headings read alike, the source gives them in different places.

On to YSHHHHHHLAGTA [C26], for which the Kd is 0.023 nM in experiment [1] and ~0.023 nM in experiment [2].
